“And” between values parts separate entries of the source, which are not always exact repeats. Equal entries are not always repeated.

This experiment concerns A549 human lung carcinoma cells. Description: Control for the activity of Photofrin® in the absence of irradiation (+D, −L), viability relative to cell control. The format is cell-based. How it is done: The plate is covered with a black lid and placed in the incubator for four hours to allow absorption of the drug by the cells. The plate is then removed from the incubator, the drug is aspirated, the wells are washed with Dulbecco's phosphate buffered saline (DPBS) and fresh, pre-warmed medium is added to the wells. The columns of wells not to be irradiated are covered with foil strips, the black lid is exchanged for a clear lid, and the plate is then moved to the irradiation template beneath the light beam and irradiated for ten minutes, for a total of 3.3 joules. The plate is returned to the incubator and assessed for viability using XTT after 24 hours. The wells covered with foil strips are important controls for the activity of Photofrin® in the absence of irradiation and the effect of light on the cells in the absence of drug.
The optical absorbance of the wells in column 1 (high drug concentration, no cells) is evaluated for absorption at 450 nm to ensure that the drug is not interfering with the XTT assay. The percent viability of each of the wells in columns 2-9 and 11 is calculated relative to the mean value of column 10 (cell control, no drug, no light). For each dose response obtained, a four parameter logistic (4PL) nonlinear regression analysis is performed of the percent viability versus the log-Photofrin® concentration. The point of inflection of the regression curve (C value) is defined as the EC50 and used in the calculation of relative potency. Curve fitting and calculation of the EC50 is performed with Softmax v5.4.2 (Molecular Devices, Inc.) or Prism v.5.04 (GraphPad, Software Inc.) software. The mean percent viability of columns 9 and 11 is also calculated.
Critical aspects of the system suitability will include the acceptable performance of the assay controls. The expectation is that the viability of cells receiving no drug but with light (−D, +L) and cells receiving a high concentration of drug but no light (+D, −L) should approximate the viability of the cell control not receiving drug or light (CC). The percent viability of all samples is based on the CC, which is calculated set at 1.00 and is not included in the Table.

For porfimer sodium [Photofrin®], the “+D, −L/CC” value reads like this: (70 μg/mL drug, no irradiation, ratio to cell control (no drug, no irradiation), Plate 1 (left to right dilution; controls in columns 9-11)) 0.994; (70 μg/mL drug, no irradiation, ratio to cell control, Plate 2 (placement Test, Standard; controls in columns 9-11)) 0.926; (70 μg/mL drug, no irradiation, ratio to cell control, Plate 3 (right to left dilution; controls in columns 9-11)) 0.981; (70 μg/mL drug, no irradiation, ratio to cell control, Plate 4 (left to right dilution; controls in columns 9-11)) 0.928; (70 μg/mL drug, no irradiation, ratio to cell control, Plate 5 (left to right dilution; controls in columns 2-4)) 1.00. Also, under “70 μg/mL drug, no irradiation, ratio to cell control, mean across Plates 1-5 of positional analysis”, the “+D, −L/CC, Mean” value was determined as 0.967. For the same substance, the “+D, −L” value reads like this: (high concentration of drug, no light, viability based on cell control set at 1.00, experiments of Table 1, black plates) 1.05 and 0.893 and 1.09; (high concentration of drug, no light, viability based on cell control set at 1.00, experiments of Table 1, clear plates (significant cell killing, excluded from the analysis)) 0.012 and 0.019 and 0.024; (high concentration of drug, no light, viability based on cell control set at 1.00, experiments of Table 2, black plates) 1.06 and 0.947 and 0.986; (high concentration of drug, no light, viability based on cell control set at 1.00, experiments of Table 4, black plates) 0.994 and 0.926 and 0.981 and 0.928 and 1.00; (high concentration of drug, no light, viability based on cell control set at 1.00, experiments of Table 5, black plates) 0.999 and 1.02 and 1.00 and 1.29 and 0.973; (high concentration of drug, no light, viability based on cell control set at 1.00, experiments of Table 6, black plates) 0.990 and 0.981 and 0.977. For the same substance, the “+D, −L” value reads like this: (high concentration of drug, no light, viability based on cell control set at 1.00, experiments of Table 7, black plates) 0.973 and 1.00; (high concentration of drug, no light, viability based on cell control set at 1.00, experiments of Table 8, black plates) 1.02 and 0.992 and 0.995 and 0.959 and 0.985; (high concentration of drug, no light, viability based on cell control set at 1.00, experiments of Table 9, black plates) 1.01 and 0.898 and 0.959; (high concentration of drug, no light, viability based on cell control set at 1.00, experiments of Table 10, black plates) 1.09 and 1.08 and 0.995; (high concentration of drug, no light, viability based on cell control set at 1.00, experiments of Table 11, black plates) 0.980 and 0.973 and 1.02 and 0.956; (high concentration of drug, no light, viability based on cell control set at 1.00, experiments of Table 12, black plates) 0.990 and 0.906 and 1.03 and 1.02 and 1.00. The “+D, −L, Mean” value (high concentration of drug, no light, viability based on cell control set at 1.00, mean of all experiments, clear plate values excluded) is reported as 1.00.

The values are drawn from patent US11726079B2, “Lighting systems and methods of using lighting systems for in vitro potency assay for Photofrin” (Concordia Laboratories, Inc., priority 2012, dated 2023).
